Source: ChEMBL document CHEMBL1133542, “Adenosine deaminase inhibitors: synthesis and biological evaluation of unsaturated, aromatic, and oxo derivatives of (+)-erythro-9-(2'S-hydroxy-3'R-nonyl)adenine [(+)-EHNA]” (J Med Chem, 2000)

Biological target: T1, Adenosine deaminase (Bos taurus, UniProt P56658)
T1 sequence (P56658 whole entry): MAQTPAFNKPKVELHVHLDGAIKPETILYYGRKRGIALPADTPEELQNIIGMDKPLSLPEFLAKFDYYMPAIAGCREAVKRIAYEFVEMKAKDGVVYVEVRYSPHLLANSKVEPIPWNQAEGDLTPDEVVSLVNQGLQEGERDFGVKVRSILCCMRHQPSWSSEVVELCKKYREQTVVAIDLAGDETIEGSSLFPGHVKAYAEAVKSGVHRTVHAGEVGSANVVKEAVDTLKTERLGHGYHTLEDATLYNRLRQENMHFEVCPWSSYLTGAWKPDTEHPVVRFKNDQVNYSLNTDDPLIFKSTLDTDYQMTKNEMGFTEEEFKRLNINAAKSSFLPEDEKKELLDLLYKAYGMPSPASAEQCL
Description: Inhibition of Adenosine deaminase (ADA) of calf intestine

| SMILES | Ki |
| --- | --- |
| C[C@H](O)[C@@H](COCCc1ccccc1)n1cnc2c(N)ncnc21 | 93.1 nM |
| CCCCOC[C@H]([C@H](C)O)n1cnc2c(N)ncnc21 | 123 nM |
